The target in assay [1] is T1, hERG potassium ion channel (Homo sapiens, UniProt Q12809).
T1 construct: host or cells: CHO
In words: Effect on hERG potassium ion channel (CHO hERG cells, manual patch clamp). The class given is cell-based. Conditions: final 10 μM test concentration, read-out: hERG inhibitory concentration IC50. The procedure:
Assay 2: Effect on hERG Potassium Ion Channel 2.1 Cell Culture 2.1.1 Cells used in this experiment were CHO cell lines (supplied by Sophion Bioscience, Denmark) which were hERG cDNA transfectant and stably express hERG channels, and cell progeny was P15. Cells were cultured in medium containing the following ingredients Invitrogen): Ham's F12 medium, 10% (v/v) inactivated fetal bovine serum, […] Geneticin. 2.1.2 CHO hERG cells were grown in Petri dishes containing the above medium and cultured in an incubator containing 5% CO2 at 37° C. CHO hERG cells were transferred onto round glass plates in Petri dishes, and grown on the same culture medium under culture conditions as above for 24 h to 48 h prior to the electrophysiological experiments, and the density of CHO hERG cells on each round glass plate needs to meet the requirements that the vast majority of cells are independent and individual. 2.2 Experimental Solution The following solutions (supplied by Sophion) were used for electrophysiological recording as shown in Table 3. The reagents used in this test were provided by Sigma. [table] 2.3 Electrophysiological Recording System In this experiment, whole-cell current recording was performed using a manual patch clamp system (HEKA EPC-10 signal amplification and digital conversion system, purchased from HEKA Electronic, Germany). The round glass slide, surface of which CHO hERG cells were grown on was placed in an electrophysiological recording slot under an inverted microscope. Extracellular fluid was used for steady perfision in recording slot (approximately 1 ml per minute). A conventional whole-cell patch clamp current recording technique was used in the experiment. Unless otherwise specified, experiments were performed at normal room temperature (25° C.). Cell clamping was at −80 mV. Cell clamping voltage depolarized to +20 mV to activate hERG potassium channel, clamping to −50 mV after 5 sec to eliminate inactivation and generate tail currents. The tail current peak was used as a value for hERG current. The hERG potassium current recorded in the above steps could be superfused for test drug after the steady perfusion state of the extracellular fluid in the recording slot is stabilized until the inhibition of the hERG current by the drug reached a steady state. The coincidence of the last three consecutive current recording lines was generally used as a criterion to determine whether the state is stable. After reaching a steady state, perfused with extracellular fluid until hERG current returned to the value before the drug adding. One or more drugs could be tested on a single cell, or multiple concentrations of the same drug, but needed to be rinsed with extracellular fluid between different drugs. […] 2.4 Compound Treatment and Dilution The compound was firstly dissolved in DMSO to a concentration of 10 mM and then the compound was diluted 1000-fold to the final […] test concentration using an extracellular solution. The final concentration of DMSO in the compound test solution was equal to 0.1%. […] All stock solutions and test solutions were subjected to regular 5-10 minute sonication and shaken to ensure complete dissolution of the compound. 2.5 Data Analysis The test data were analyzed by the data analysis software provided by HEKA Patchmaster (V2x73.2), Microsoft Excel and Graphpad Prism 5.0.

Assay [2] deals with T2, hCav3.2 (Homo sapiens, UniProt O95180).
T2 construct: host or cells: HEK
Description: Manual patch clamp experiment of hCav3.2 channel (HEK-hCav3.2). Format: cell-based. As to conditions: read-out: Cav3.2(IC50/nM). The procedure:
Manual Patch Clamp Experiment of hCav3.2 Channel: The stable cell line HEK-hCav3.2 used for manual patch clamp experiments was from WuXi Apptec (Shanghai) Company. […] Composition of extracellular fluid (millimoles) in the experiment: HEPES 10, CsCl 6, CaCl2) 2, TEA-Cl 140. The pH was adjusted to 7.4 with CsOH, while the osmotic pressure was adjusted to 310-320 mOsm with sucrose, filtered and stored at 4° C. Composition of the intracellular fluid (millimoles): HEPES 10, CsCl 55, CsSO4 75, MgCl2 10, EGTA 0.1. The pH was adjusted to 7.2 with CsOH, while the osmotic pressure was adjusted to 280-290 mOsm with sucrose, filtered and stored at −20° C. […] Manual Patch Clamp Experiment: The cell suspension was added to a 35 mm petri dish and placed on an inverted microscope stage. The cells were perfused with an extracellular fluid and the flow rate was 1-2 mL/min after cell adherence. […] The stimulation program was repeated every 15 s and recorded continuously. The inhibitory effect of the compound was calculated by the change of the current before and after dosing, and the IC50 value was fitted by the Hill equation.
A general note: In patch-clamp work, channel activity is measured electrically.

T1 sequence (Q12809 whole entry): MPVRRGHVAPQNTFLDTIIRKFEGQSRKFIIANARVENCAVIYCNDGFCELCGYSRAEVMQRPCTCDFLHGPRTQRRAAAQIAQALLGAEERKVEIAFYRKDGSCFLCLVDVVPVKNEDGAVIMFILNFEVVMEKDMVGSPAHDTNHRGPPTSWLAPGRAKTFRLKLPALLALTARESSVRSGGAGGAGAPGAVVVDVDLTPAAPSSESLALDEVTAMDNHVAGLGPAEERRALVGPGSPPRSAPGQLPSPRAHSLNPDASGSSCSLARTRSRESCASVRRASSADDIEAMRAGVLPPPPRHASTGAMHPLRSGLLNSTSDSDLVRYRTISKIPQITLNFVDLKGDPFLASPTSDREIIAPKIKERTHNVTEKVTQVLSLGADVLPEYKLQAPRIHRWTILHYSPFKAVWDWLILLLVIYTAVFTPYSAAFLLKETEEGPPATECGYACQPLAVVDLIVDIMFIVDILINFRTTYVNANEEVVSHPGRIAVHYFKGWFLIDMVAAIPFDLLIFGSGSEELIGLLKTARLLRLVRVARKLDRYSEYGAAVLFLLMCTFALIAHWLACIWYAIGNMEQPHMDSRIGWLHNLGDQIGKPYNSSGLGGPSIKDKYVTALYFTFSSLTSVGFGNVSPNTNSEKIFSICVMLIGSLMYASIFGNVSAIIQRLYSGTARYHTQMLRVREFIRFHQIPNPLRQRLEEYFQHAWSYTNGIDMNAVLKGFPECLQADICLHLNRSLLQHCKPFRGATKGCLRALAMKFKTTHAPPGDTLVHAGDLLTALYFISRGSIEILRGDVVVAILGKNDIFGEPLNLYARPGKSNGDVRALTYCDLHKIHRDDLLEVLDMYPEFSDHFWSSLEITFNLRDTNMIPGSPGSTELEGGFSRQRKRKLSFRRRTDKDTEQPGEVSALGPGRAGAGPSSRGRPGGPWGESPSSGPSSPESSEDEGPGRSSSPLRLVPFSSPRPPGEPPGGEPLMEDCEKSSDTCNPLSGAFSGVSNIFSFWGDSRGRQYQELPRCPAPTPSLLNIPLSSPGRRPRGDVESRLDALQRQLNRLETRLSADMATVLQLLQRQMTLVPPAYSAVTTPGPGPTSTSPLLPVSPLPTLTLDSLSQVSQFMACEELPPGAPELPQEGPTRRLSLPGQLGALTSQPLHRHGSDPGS
T2 sequence (O95180 whole entry): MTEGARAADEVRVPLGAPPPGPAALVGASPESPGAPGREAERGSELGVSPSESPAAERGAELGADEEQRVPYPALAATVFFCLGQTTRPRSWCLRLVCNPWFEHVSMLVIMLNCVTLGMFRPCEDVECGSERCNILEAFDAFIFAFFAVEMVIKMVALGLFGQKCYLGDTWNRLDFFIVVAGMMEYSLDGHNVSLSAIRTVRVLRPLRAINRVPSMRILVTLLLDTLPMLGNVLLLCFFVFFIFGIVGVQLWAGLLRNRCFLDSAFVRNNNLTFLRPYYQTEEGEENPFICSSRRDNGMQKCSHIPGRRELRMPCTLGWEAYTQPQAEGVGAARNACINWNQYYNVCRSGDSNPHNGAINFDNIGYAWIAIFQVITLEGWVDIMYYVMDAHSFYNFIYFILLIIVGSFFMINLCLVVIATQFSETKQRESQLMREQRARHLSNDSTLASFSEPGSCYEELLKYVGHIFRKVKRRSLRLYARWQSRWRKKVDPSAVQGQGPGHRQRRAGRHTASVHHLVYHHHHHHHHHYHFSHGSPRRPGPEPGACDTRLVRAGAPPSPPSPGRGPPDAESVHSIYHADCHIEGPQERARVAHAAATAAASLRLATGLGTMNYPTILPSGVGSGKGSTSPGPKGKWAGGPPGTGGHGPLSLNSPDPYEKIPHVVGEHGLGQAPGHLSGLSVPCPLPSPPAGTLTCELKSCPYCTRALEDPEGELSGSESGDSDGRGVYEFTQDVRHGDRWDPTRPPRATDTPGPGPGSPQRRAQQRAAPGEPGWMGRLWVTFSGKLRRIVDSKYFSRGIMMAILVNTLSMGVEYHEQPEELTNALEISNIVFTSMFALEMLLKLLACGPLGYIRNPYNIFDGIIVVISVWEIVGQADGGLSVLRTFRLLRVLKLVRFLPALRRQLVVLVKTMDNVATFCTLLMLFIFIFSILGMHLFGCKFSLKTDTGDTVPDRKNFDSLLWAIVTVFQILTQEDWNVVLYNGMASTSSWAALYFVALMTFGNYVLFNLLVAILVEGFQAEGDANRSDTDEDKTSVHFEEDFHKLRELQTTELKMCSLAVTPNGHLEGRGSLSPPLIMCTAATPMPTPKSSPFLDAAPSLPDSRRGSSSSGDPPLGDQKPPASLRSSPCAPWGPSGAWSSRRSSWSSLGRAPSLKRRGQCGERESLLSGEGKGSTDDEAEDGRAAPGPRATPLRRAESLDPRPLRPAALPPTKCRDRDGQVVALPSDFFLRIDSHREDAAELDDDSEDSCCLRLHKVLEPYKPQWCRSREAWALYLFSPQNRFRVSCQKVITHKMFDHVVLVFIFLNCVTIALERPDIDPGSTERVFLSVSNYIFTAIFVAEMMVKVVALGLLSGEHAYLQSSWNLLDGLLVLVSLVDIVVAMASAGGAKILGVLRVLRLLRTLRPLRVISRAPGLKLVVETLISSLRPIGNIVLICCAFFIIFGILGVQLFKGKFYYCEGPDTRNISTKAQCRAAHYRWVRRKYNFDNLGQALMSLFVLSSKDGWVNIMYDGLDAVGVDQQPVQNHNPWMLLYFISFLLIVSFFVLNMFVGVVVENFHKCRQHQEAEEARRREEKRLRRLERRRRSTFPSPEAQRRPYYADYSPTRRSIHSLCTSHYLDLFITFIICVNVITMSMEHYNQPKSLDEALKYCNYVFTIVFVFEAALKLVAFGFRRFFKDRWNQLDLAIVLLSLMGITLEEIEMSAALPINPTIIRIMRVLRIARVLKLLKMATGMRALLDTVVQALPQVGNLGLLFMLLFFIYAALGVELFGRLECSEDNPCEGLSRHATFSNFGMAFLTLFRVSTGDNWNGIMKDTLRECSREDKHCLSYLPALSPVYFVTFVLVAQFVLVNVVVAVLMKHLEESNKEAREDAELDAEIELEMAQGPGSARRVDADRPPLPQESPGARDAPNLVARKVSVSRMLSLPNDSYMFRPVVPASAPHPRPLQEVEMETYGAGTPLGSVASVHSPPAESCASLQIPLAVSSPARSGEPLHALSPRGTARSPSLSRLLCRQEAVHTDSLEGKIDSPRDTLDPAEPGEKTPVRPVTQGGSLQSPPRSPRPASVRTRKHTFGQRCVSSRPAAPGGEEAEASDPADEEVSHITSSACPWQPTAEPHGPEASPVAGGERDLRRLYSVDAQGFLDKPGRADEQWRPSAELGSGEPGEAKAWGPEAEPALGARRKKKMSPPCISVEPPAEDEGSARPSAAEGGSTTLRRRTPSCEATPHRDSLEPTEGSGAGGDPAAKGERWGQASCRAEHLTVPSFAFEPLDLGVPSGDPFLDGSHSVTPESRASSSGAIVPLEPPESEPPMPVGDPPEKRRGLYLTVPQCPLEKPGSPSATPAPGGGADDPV

For `C[C@@H]1CN(c2ccc(Cl)c(Cl)c2)CCN1Cc1cc(F)c(C(=O)NS(=O)(=O)C2CC2)cc1Cl` [Compound Z-172, (R)-5-Chloro-N-(cyclopropylsulfonyl)-4-((4-(3,4-dichlorophenyl)-2-methylpiperazin-1-yl)methyl)-2-fluorobenzamide], the IC50 in assay [1] was greater than 10 µM. `CCc1cc(N2CCN(Cc3cc(F)c(C(=O)NS(=O)(=O)C4CC4)cc3Cl)CC2)ccc1Cl` [Compound Z-178]: the IC50 in assay [1] was greater than 10 µM. In the case of `Cc1ccc(N2CCN(Cc3cc(F)c(C(=O)NS(=O)(=O)C4CC4)cc3Cl)CC2)cc1Cl` [Compound Z-177], the IC50 in assay [1] was greater than 10 µM. With `O=C(NS(=O)(=O)C1CC1)c1cc(Cl)c(CN2CCN(c3ccc(C4CC4)c(Cl)c3)CC2)cc1F` [Compound Z-173], in assay [1], the IC50 was greater than 10 µM. As to `Cc1cc(N2CCN(Cc3cc(F)c(C(=O)NS(=O)(=O)C4CC4)cc3Cl)CC2)ccc1Cl` [Compound Z-164], in assay [2], the IC50 was greater than 30000 nM. Turning to `CCc1cc(C(=O)NS(=O)(=O)C2CC2)c(F)cc1CN1CCN(c2ccc(OC(F)(F)F)cc2)CC1` [Compound Z-189, N-(cyclopropylsulfonyl)-5-ethyl-2-fluoro-4-((4-(4-(trifluoromethoxy)phenyl)piperazin-1-yl)methyl)benzamide], the IC50 in assay [1] was greater than 10 µM.
